Measured values published in ChEMBL document CHEMBL1156193, “Discovery of a long-acting, peripherally selective inhibitor of catechol-O-methyltransferase” (2010).

Legend:
Mus musculus [1] = test: Inhibition of COMT in NMRI mouse liver homogenates assessed as metanephrine formation at 3 mg/kg, po measured after 3 hrs relative to control; values are per cent of control
[2] = Cytotoxicity against mouse Neuro2a cells assessed as cell viability at 30 uM after 24 hrs; assay type: functional; conditions: N2a, read-out: Activity
[3] = biological target: T1, Catechol O-methyltransferase (Rattus norvegicus) (UniProt P22734); test: Inhibition of COMT in rat liver homogenates assessed as metanephrine formation at 30 uM relative to control; values are per cent of control
T1 sequence (whole entry): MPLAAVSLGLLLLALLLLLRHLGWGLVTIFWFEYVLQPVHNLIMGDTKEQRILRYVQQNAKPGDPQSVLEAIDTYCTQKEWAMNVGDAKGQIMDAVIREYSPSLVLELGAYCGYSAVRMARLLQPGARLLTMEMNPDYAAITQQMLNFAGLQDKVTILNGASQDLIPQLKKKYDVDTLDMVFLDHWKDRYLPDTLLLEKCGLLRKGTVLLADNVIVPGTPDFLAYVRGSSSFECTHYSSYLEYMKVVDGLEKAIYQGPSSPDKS

Rattus norvegicus [4] = test: Inhibition of COMT in Wistar rat liver homogenates assessed as metanephrine formation at 3 mg/kg, po measured after 3 hrs relative to control; values are per cent of control
[5] = biological target: T1, Catechol O-methyltransferase (Rattus norvegicus); test: Inhibition of COMT in rat liver homogenates assessed as metanephrine formation at 3 uM relative to control; values are per cent of control
Mus musculus [6] = test: Inhibition of COMT in NMRI mouse liver homogenates assessed as metanephrine formation at 30 mg/kg, po measured after 6 hrs relative to control; values are per cent of control
Rattus norvegicus [7] = test: Inhibition of COMT in Wistar rat brain homogenates assessed as metanephrine formation at 3 mg/kg, po measured after 3 hrs relative to control; values are per cent of control

O=[N+]([O-])c1cc(-c2nc(N3CCOCC3)no2)cc(O)c1O
level, % of control at 3 mg/kg (Mus musculus [1]): 45.8% | viability at 30 µM [2]: 67.5%

O=[N+]([O-])c1cc(-c2nc(-c3ccc(Br)cc3)no2)cc(O)c1O
level, % of control at 3 mg/kg (Mus musculus [1]): 12.7% | viability at 30 µM [2]: 12.2%

Oc1ccc(-c2ccnn2-c2ccccc2)c(O)c1O
residual activity [3]: 26.8%

O=[N+]([O-])c1cc(-c2nc(-c3ccc[n+]([O-])c3Cl)no2)cc(O)c1O
level, % of control at 3 mg/kg (Rattus norvegicus [4]): 71.6% | viability at 30 µM [2]: 93.7%

O=[N+]([O-])c1cc(-c2ccn[nH]2)cc(O)c1O
residual activity [5]: 0%

O=[N+]([O-])c1cc(-c2nc(-c3ccnc(F)c3)no2)cc(O)c1O
viability at 30 µM [2]: 25%

O=[N+]([O-])c1cc(-c2nc(-c3cnccc3C(F)(F)F)no2)cc(O)c1O
viability at 30 µM [2]: 14.7%

O=[N+]([O-])c1cc(-c2nc(-c3ccc(C(F)(F)F)[n+]([O-])c3)no2)cc(O)c1O
level, % of control at 3 mg/kg (Rattus norvegicus [4]): 34.4% | viability at 30 µM [2]: 87%

CN1CCN(C(=O)c2ccc(-c3noc(-c4cc(O)c(O)c([N+](=O)[O-])c4)n3)cc2)CC1
level, % of control at 3 mg/kg (Mus musculus [1]): 74% | viability at 30 µM [2]: 90.7%

Cc1ccc(-c2noc(-c3cc(O)c(O)c([N+](=O)[O-])c3)n2)c(Cl)n1
viability at 30 µM [2]: 53.1%

O=[N+]([O-])c1cc(-c2nc(-c3cnccn3)no2)cc(O)c1O
viability at 30 µM [2]: 60.5%

Cc1nc(-c2noc(-c3cc(O)c(O)c([N+](=O)[O-])c3)n2)cs1
level, % of control at 3 mg/kg (Mus musculus [1]): 22.9% | viability at 30 µM [2]: 58.7%

O=[N+]([O-])c1cc(-c2cncn2-c2ccccc2)cc(O)c1O
level, % of control at 30 mg/kg (Mus musculus [6]): 109%

O=C(Cc1ccccc1)c1cc(O)c(O)c([N+](=O)[O-])c1 [NEBICAPONE]
level, % of control at 30 mg/kg (Mus musculus [6]): 85.7%

O=[N+]([O-])c1cc(-c2nc(-c3ccccn3)no2)cc(O)c1O
viability at 30 µM [2]: 70.5%

O=[N+]([O-])c1cc(-c2nc(-c3ccncc3)no2)cc(O)c1O
viability at 30 µM [2]: 27.3%

O=[N+]([O-])c1cc(-c2c(-c3ccccc3)cnn2-c2cccc(Cl)c2)cc(O)c1O
residual activity [5]: 68.6%

O=[N+]([O-])c1cc(-c2nc(-c3c[n+]([O-])ccc3C(F)(F)F)no2)cc(O)c1O
level, % of control at 3 mg/kg (Rattus norvegicus [4]): 23.6% | viability at 30 µM [2]: 93.4%

Cc1ccc(C(=O)n2ncc(-c3ccccc3)c2-c2cc(O)c(O)c([N+](=O)[O-])c2)cc1
residual activity [5]: 2.8% | level, % of control at 30 mg/kg (Mus musculus [6]): 89.3%

Cc1[nH]nc(-c2ccc(O)c(O)c2O)c1-c1ccc(Cl)cc1
residual activity [5]: 15.6%

O=C(O)c1cc(-c2ccnn2-c2cccc(Cl)c2)cc(O)c1O
residual activity [3]: 24.1%

Cc1ccc(-c2noc(-c3cc(O)c(O)c([N+](=O)[O-])c3)n2)c(Br)[n+]1[O-]
level, % of control at 3 mg/kg (Rattus norvegicus [4]): 33.7% | viability at 30 µM [2]: 76.3%

CN1CCN(c2noc(-c3cc(O)c(O)c([N+](=O)[O-])c3)n2)CC1
level, % of control at 3 mg/kg (Mus musculus [1]): 56.8% | viability at 30 µM [2]: 90.2%

O=[N+]([O-])c1cc(-c2nc(N3CCN(c4ccccn4)CC3)no2)cc(O)c1O
level, % of control at 3 mg/kg (Mus musculus [1]): 32.2% | viability at 30 µM [2]: 24.6%

Cc1c(-c2noc(-c3cc(O)c(O)c([N+](=O)[O-])c3)n2)c(C(F)(F)F)cc(-c2ccccc2)[n+]1[O-]
level, % of control at 3 mg/kg (Rattus norvegicus [4]): 24.3% | viability at 30 µM [2]: 26.6%

Cc1cc(-c2noc(-c3cc(O)c(O)c([N+](=O)[O-])c3)n2)on1
viability at 30 µM [2]: 27.6%

O=[N+]([O-])c1cc(-c2ccnc(-c3ccccc3)n2)cc(O)c1O
level, % of control at 30 mg/kg (Mus musculus [6]): 44.8%

O=[N+]([O-])c1cc(-c2nc(-c3cccs3)no2)cc(O)c1O
level, % of control at 3 mg/kg (Mus musculus [1]): 29.6% | viability at 30 µM [2]: 19.3%

N#Cc1ccc(-n2nccc2-c2cc(O)c(O)c([N+](=O)[O-])c2)cc1
residual activity [5]: 0.3% | level, % of control at 30 mg/kg (Mus musculus [6]): 61.1%

Cc1ccc(-n2nccc2-c2ccc(O)c(O)c2)cc1
residual activity [3]: 41.2%

O=[N+]([O-])c1cc(-c2nc(-c3ccccc3)no2)cc(O)c1O
level, % of control at 3 mg/kg (Mus musculus [1]): 20.6% | level, % of control at 30 mg/kg (Mus musculus [6]): 7% | level, % of control at 3 mg/kg (Rattus norvegicus [4]): 20.6% | viability at 30 µM [2]: 43.1% | level, % of control at 3 mg/kg (Rattus norvegicus [7]): 71.7%

Cc1nc(-c2cc(O)c(O)c([N+](=O)[O-])c2)c(-c2ccccc2)o1
level, % of control at 30 mg/kg (Mus musculus [6]): 84.1%

Cc1ccc(-n2nccc2-c2cc(O)c(O)c([N+](=O)[O-])c2)cc1
residual activity [5]: 0%

Oc1ccc(-c2ccnn2-c2ccc(C(F)(F)F)cc2)c(F)c1O
residual activity [3]: 32.3%

O=[N+]([O-])c1cc(-c2nc(-c3ccc[n+]([O-])c3)no2)cc(O)c1O
level, % of control at 3 mg/kg (Rattus norvegicus [4]): 77% | viability at 30 µM [2]: 93.8%

Cc1cc(C(F)(F)F)c(-c2noc(-c3cc(O)c(O)c([N+](=O)[O-])c3)n2)c(C)[n+]1[O-]
level, % of control at 3 mg/kg (Rattus norvegicus [4]): 1.3% | viability at 30 µM [2]: 37.2%

O=[N+]([O-])c1cc(-c2noc(-c3ccccc3)n2)cc(O)c1O
level, % of control at 30 mg/kg (Mus musculus [6]): 24.4% | level, % of control at 3 mg/kg (Rattus norvegicus [4]): 51.9% | level, % of control at 3 mg/kg (Rattus norvegicus [7]): 55.6%

Cc1cc(C)[n+]([O-])c(Cl)c1-c1noc(-c2cc(O)c(O)c([N+](=O)[O-])c2)n1
level, % of control at 3 mg/kg (Rattus norvegicus [4]): 13.9% | viability at 30 µM [2]: 92.3%

Cc1ccc(-c2noc(-c3cc(O)c(O)c([N+](=O)[O-])c3)n2)c(Cl)[n+]1[O-]
level, % of control at 3 mg/kg (Rattus norvegicus [4]): 31.6% | viability at 30 µM [2]: 100%

CC(=O)N1CCN(c2noc(-c3cc(O)c(O)c([N+](=O)[O-])c3)n2)CC1
level, % of control at 3 mg/kg (Mus musculus [1]): 68.2% | viability at 30 µM [2]: 104%

Cc1c(C)c(C)[n+]([O-])c(Cl)c1-c1noc(-c2cc(O)c(O)c([N+](=O)[O-])c2)n1
level, % of control at 3 mg/kg (Rattus norvegicus [4]): 7.9% | viability at 30 µM [2]: 95.1%

O=[N+]([O-])c1cc(-c2ccnn2-c2cccc(Cl)c2)cc(O)c1O
residual activity [5]: 0%

O=[N+]([O-])c1cc(-c2nc(-c3ccc(F)cc3)no2)cc(O)c1O
level, % of control at 3 mg/kg (Mus musculus [1]): 12.7% | viability at 30 µM [2]: 29.5%

O=[N+]([O-])c1cc(-c2nc(-c3cccnc3)no2)cc(O)c1O
viability at 30 µM [2]: 26.7%

O=[N+]([O-])c1cc(-c2nc(-c3ccc[n+]([O-])c3C(F)(F)F)no2)cc(O)c1O
level, % of control at 3 mg/kg (Rattus norvegicus [4]): 5.5% | viability at 30 µM [2]: 96.4%

O=[N+]([O-])c1cc(-c2nc(-c3ccc(Cl)c(Cl)c3)no2)cc(O)c1O
level, % of control at 3 mg/kg (Mus musculus [1]): 8.8% | viability at 30 µM [2]: 37.7%

Nc1nc(-c2cc(O)c(O)c([N+](=O)[O-])c2)c(-c2ccccc2)s1
level, % of control at 30 mg/kg (Mus musculus [6]): 77.4%

NC(=O)c1ccc(-c2noc(-c3cc(O)c(O)c([N+](=O)[O-])c3)n2)cc1
level, % of control at 3 mg/kg (Mus musculus [1]): 79.2% | viability at 30 µM [2]: 91.2%

Oc1cc(-c2ccnn2-c2ccccc2)cc(O)c1O
residual activity [3]: 0.8%

Cn1nccc1-c1cc(O)c(O)c([N+](=O)[O-])c1
residual activity [5]: 1.1%

O=[N+]([O-])c1cc(-c2nnc(-c3ccccc3)o2)cc(O)c1O
level, % of control at 30 mg/kg (Mus musculus [6]): 47.3% | level, % of control at 3 mg/kg (Rattus norvegicus [4]): 67.8% | level, % of control at 3 mg/kg (Rattus norvegicus [7]): 87.9%

Cc1ccc(-c2noc(-c3cc(O)c(O)c([N+](=O)[O-])c3)n2)c(N2CCOCC2)n1
viability at 30 µM [2]: 43.8%

Cc1c(-c2noc(-c3cc(O)c(O)c([N+](=O)[O-])c3)n2)ccc(C(F)(F)F)[n+]1[O-]
level, % of control at 3 mg/kg (Rattus norvegicus [4]): 13.9% | viability at 30 µM [2]: 62.2%

O=[N+]([O-])c1cc(-c2ccnn2-c2ccccc2)cc(O)c1O
residual activity [5]: 0% | level, % of control at 30 mg/kg (Mus musculus [6]): 60.8%
